Legend:
Format in all cases: in vivo
[1] = system: Blumeria graminis f. sp. tritici; experiment: Test C1 (comparative): wheat powdery mildew, wheat seedlings; conditions: 100 = 100% disease control
Source text: (§1) General protocol for preparing test suspensions for Tests A1-F1: the test compounds were first dissolved in acetone in an amount equal to 3% of the final volume and then suspended at the desired concentration (in ppm) in acetone and purified water (50/50 mix by volume) containing 250 ppm of the surfactant PEG400 (polyhydric alcohol esters). The resulting test suspensions were then used in Tests A1-F1.
The test suspension was sprayed to the point of run-off on wheat seedlings. The following day the seedlings were inoculated with a spore dust of Blumeria graminis f. sp. tritici, (also known as Erysiphe graminis f. sp. tritici, the causal agent of wheat powdery mildew) and incubated in a growth chamber at 20° C. for 8 days, after which time visual disease ratings were made.
(§2) A rating of 100 indicates 100% disease control and a rating of 0 indicates no disease control (relative to the controls).

[2] = system: Puccinia recondita f. sp. tritici; experiment: Test B1 (comparative): wheat leaf rust, wheat seedlings; conditions: 100 = 100% disease control
Source text: as §1
The test solution was sprayed to the point of run-off on wheat seedlings. The following day the seedlings were inoculated with a spore suspension of Puccinia recondita f. sp. tritici (the causal agent of wheat leaf rust) and incubated in a saturated atmosphere at 20° C. for 24 h, and then moved to a growth chamber at 20° C. for 7 days, after which time disease ratings were made.
as §2

Botrytis cinerea [3] = experiment: Test E1 (comparative): tomato Botrytis, tomato seedlings; conditions: 100 = 100% disease control
Source text: as §1
(§3) The test suspension was sprayed to the point of run-off on tomato seedlings. The following day the seedlings were inoculated with a spore suspension of Botrytis cinerea (the causal agent of tomato Botrytis) and incubated in a saturated atmosphere at 20° C. for 48 h, and then moved to a growth chamber at 24° C. for 3 days, after which time visual disease ratings were made.
as §2

Septoria tritici [4] = experiment: Test A1 (comparative): wheat leaf blotch, wheat seedlings; conditions: 100 = 100% disease control, 0 = no control
Source text: as §1
The test solution was sprayed to the point of run-off on wheat seedlings. The following day the seedlings were inoculated with a spore suspension of Septoria tritici (the causal agent of wheat leaf blotch) and incubated in a saturated atmosphere at 24° C. for 48 h, and then moved to a growth chamber at 20° C. for 17 days, after which time disease ratings were made.
as §2

Alternaria solani [5] = experiment: Test F1 (comparative): tomato early blight, tomato seedlings; conditions: 100 = 100% disease control
Source text: as §1
as §3, with “Alternaria solani” for “Botrytis cinerea”, “early blight)” for “Botrytis)”, “27°” for “20°”, “20°” for “24°”
as §2

Alternaria solani [6] = experiment: Test F: tomato early blight, preventive spray on tomato seedlings; conditions: 50 ppm, 100 = 100% disease control, 0 = no control
Method in brief: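 Tomato seedlings were sprayed to run-off with compound suspended in acetone/water (50/50) with 250 ppm PEG400 and inoculated with Alternaria solani spores the next day. Plants were held 48 h at 27 °C in saturated humidity, then 3 days at 20 °C. Disease control was rated visually from 0 to 100 against untreated controls.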

[7] = system: Puccinia recondita f. sp. tritici; experiment: Test B: wheat leaf rust, preventive spray on wheat seedlings; conditions: 50 ppm, 100 = 100% disease control, 0 = no control
Method in brief: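 Wheat seedlings were sprayed to run-off with compound suspended at ppm concentrations in acetone/water containing 250 ppm PEG400. The next day they were inoculated with Puccinia recondita f. sp. tritici spores, held saturated at 20 °C for 24 h, then kept 7 days at 20 °C. Disease control was rated 0–100% relative to untreated controls.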

Phakopsora pachyrhizi = experiment: Test D: Asian soybean rust, preventive spray on soybean seedlings; conditions: 50 ppm, 100 = 100% disease control, 0 = no control
Method in brief: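 Compounds in acetone/water (50/50) with 250 ppm PEG400, dosed in ppm, sprayed to run-off on soybean seedlings; inoculated with P. pachyrhizi spores next day. Held 24 h at 22 °C in saturated air, then 8 days at 22 °C; visual rating of disease control, 0–100, relative to untreated controls.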

[8] = system: Blumeria graminis f. sp. tritici; experiment: Test C: wheat powdery mildew, preventive spray on wheat seedlings; conditions: 50 ppm, 100 = 100% disease control, 0 = no control
Method in brief: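 Seedlings were sprayed to run-off with compound suspended (ppm) in 50/50 acetone–water containing 250 ppm PEG400, then spore-dust inoculated the following day. After 8 days at 20° C, disease control was rated visually from 0 to 100 against controls.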

Septoria tritici [9] = experiment: Test A: wheat leaf blotch, preventive spray on wheat seedlings; conditions: 50 ppm, 100 = 100% disease control, 0 = no control
Method in brief: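 Wheat seedlings sprayed to run-off with compound suspended in acetone/water with 250 ppm PEG400 surfactant, inoculated next day with Septoria tritici spores. Held 48 h saturated at 24 °C, then 17 days at 20 °C; disease rated 0–100% control relative to controls.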

Botrytis cinerea [10] = experiment: Test E: tomato Botrytis, preventive spray on tomato seedlings; conditions: 50 ppm, 100 = 100% disease control, 0 = no control
Method in brief: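 Compound suspended in 50/50 acetone/water with 250 ppm PEG400 surfactant and sprayed to run-off on tomato seedlings; Botrytis cinerea spores applied the next day. Incubation 48 h at 20° C in saturated atmosphere, then 3 days at 24° C. Visual rating 0–100% disease control relative to controls.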

| SMILES | Test C1 disease control rating ([1]; Rate 10 ppm) [%] | Test C1 disease control rating ([1]; Rate 50 ppm) [%] | Test B1 disease control rating ([2]; Rate 10 ppm) [%] | Test B1 disease control rating ([2]; Rate 50 ppm) [%] | Test E1 disease control rating (Botrytis cinerea [3]; Rate 10 ppm) [%] | Test E1 disease control rating (Botrytis cinerea [3]; Rate 50 ppm) [%] | Test A1 disease control rating (Septoria tritici [4]; Rate 10 ppm) [%] | Test A1 disease control rating (Septoria tritici [4]; Rate 50 ppm) [%] | Test F1 disease control rating (Alternaria solani [5]; Rate 10 ppm) [%] | Test F1 disease control rating (Alternaria solani [5]; Rate 50 ppm) [%] | Test F disease control rating (Alternaria solani [6]) [%] | Test B disease control rating [7] [%] | Test D disease control rating (Phakopsora pachyrhizi) [%] | Test C disease control rating [8] [%] | Test A disease control rating (Septoria tritici [9]) [%] | Test E disease control rating (Botrytis cinerea [10]) [%] |
| --- | --- | --- | --- | --- | --- | --- | --- | --- | --- | --- | --- | --- | --- | --- | --- | --- |
| Cc1nn(C)c(Nc2ccc([N+](=O)[O-])cc2F)c1-c1ccc(F)cc1Cl [Cmpd. from WO 2010/101973, reference compound] | 0 | 0 | 0 | 0 | 0 | 40 | 45 | 91 | 0 | 0 |  |  |  |  |  |  |
| COc1ccc(-c2c(C)nn(C)c2Nc2c(F)cc(OC)cc2[N+](=O)[O-])c(Cl)c1 [compound 186] |  |  |  |  |  |  |  |  |  |  | 100 | 100 | 94 | 99 | 100 | 100 |
| COc1ccc(-c2c(C)nn(C)c2Nc2ccc(OC)cc2[N+](=O)[O-])c(Cl)c1 [compound 187] |  |  |  |  |  |  |  |  |  |  | 100 | 100 | 0 | 91 | 99 | 100 |
| COc1ccc(-c2c(C)nn(C)c2Nc2c(F)cc(C)cc2[N+](=O)[O-])c(Cl)c1 [compound 188] |  |  |  |  |  |  |  |  |  |  | 100 | 100 | 84 | 94 | 100 | 100 |
| Cc1nn(C)c(Nc2ccccc2[N+](=O)[O-])c1-c1ccc(Cl)cc1Cl [compound 189] |  |  |  |  |  |  |  |  |  |  | 0 | 68 | 0 | 57 | 99 | 99 |
| Cc1nn(C)c(Nc2ccccc2[N+](=O)[O-])c1-c1ccc(F)cc1F [compound 190] |  |  |  |  |  |  |  |  |  |  | 9 | 32 | 0 | 91 | 100 | 100 |
| Cc1nn(C)c(Nc2c(F)cc(Br)cc2[N+](=O)[O-])c1-c1ccc(F)cc1Br [compound 191] |  |  |  |  |  |  |  |  |  |  | 100 | 100 | 13 | 99 | 100 | 100 |
| Cc1nn(C)c(Nc2c(F)cccc2[N+](=O)[O-])c1-c1ccc([N+](=O)[O-])cc1Cl [compound 192] |  |  |  |  |  |  |  |  |  |  | 93 | 99 | 19 | 76 | 100 | 99 |
| Cc1cc(F)c(Nc2c(-c3c(F)cc(F)cc3Cl)c(C)nn2C)c([N+](=O)[O-])c1 [compound 193] |  |  |  |  |  |  |  |  |  |  | 100 | 100 | 99 | 100 | 100 | 99 |
| Cc1cc(F)c(Nc2c(-c3c(F)cc(F)cc3F)c(C)nn2C)c([N+](=O)[O-])c1 [compound 194] |  |  |  |  |  |  |  |  |  |  | 100 | 100 | 99 | 100 | 100 | 99 |
| Cc1ccc(Nc2c(-c3c(F)cccc3Cl)c(C)nn2C)c([N+](=O)[O-])c1 [compound 195] |  |  |  |  |  |  |  |  |  |  | 73 | 98 | 0 | 97 | 100 | 98 |
| Cc1ccc(Nc2c(-c3c(F)cc(F)cc3Br)c(C)nn2C)c([N+](=O)[O-])c1 [compound 196] |  |  |  |  |  |  |  |  |  |  | 91 | 99 | 0 | 98 | 100 | 98 |
| COc1ccc(Nc2c(-c3c(F)cccc3Cl)c(C)nn2C)c([N+](=O)[O-])c1 [compound 197] |  |  |  |  |  |  |  |  |  |  | 98 | 99 | 0 | 93 | 100 | 98 |
| Cc1cc(F)c(Nc2c(-c3ccc(C#N)cc3F)c(C)nn2C)c([N+](=O)[O-])c1 [compound 198] |  |  |  |  |  |  |  |  |  |  | 100 | 99 | 89 | 95 | 99 | 99 |
| Cc1nn(C)c(Nc2c(F)cc(F)cc2[N+](=O)[O-])c1-c1c(F)cc(F)cc1Cl [compound 199] |  |  |  |  |  |  |  |  |  |  | 100 | 100 | 100 | 100 | 99 | 99 |
| Cc1cc(F)c(Nc2c(-c3c(F)cc(C#N)cc3F)c(C)nn2C)c([N+](=O)[O-])c1 [compound 200] |  |  |  |  |  |  |  |  |  |  | 100 | 100 | 100 | 99 | 99 | 98 |
| Cc1cc(F)c(Nc2c(-c3c(F)cccc3Cl)c(C)nn2C)c([N+](=O)[O-])c1 [compound 201] |  |  |  |  |  |  |  |  |  |  | 99 | 100 | 98 | 99 | 100 | 99 |
